Assay results reported in patent US20160030407A1, “Method of Treating Inflammatory Lung Disease” (priority 2010, published 2016).
Values after ≈ are worked out from the molar mass of the structure shown. Values joined by “and” are separate entries in the source; they are usually repeats but may differ in a detail not shown here. Identical values can stand only once.

How the values were obtained:
[1] = Physical signs after single i.v. dose (Example 3); type: in vivo, Sprague-Dawley rats; details: rat, nicotine 0.4 mg/kg, anatabine 0.10, 0.75, 1.0 mg/kg
Procedure: Four aliquots of each dose level formulation were collected and stored at −80° C. The test compound, corresponding dose level, number of animals, and sample collection times for Phase I of the study are shown in Table 3. The test compound, corresponding dose level, number of animals, and sample collection times for Phase II of the study are shown in Table 4. The physical signs of each animal were monitored following administration of the test compound.

[2] = Single i.v. dose toxicity: coagulation (aPTT, PT); type: in vivo, Sprague-Dawley rats; details: for ACTIVE PARTIAL THROMBOPLASTIN TIME: Anatabine 0.1 mg/kg single i.v. dose
From the text: (§1) On day 15, urine was collected on all surviving animals for urinalysis. The animals were euthanized and bled via cardiac puncture. Blood was collected for hematology, clinical chemistry, and coagulation analysis. Tissues were collected, weighed, and stored in 10% neutral-buffered formalin for possible future analysis.

[3] = Single i.v. dose toxicity: necropsy observations and organ weights; type: in vivo, Sprague-Dawley rats
Procedure: (§2) Body weight and food consumption was measured daily for 14 days. On day 15, urine was collected on all surviving animals. The animals were euthanized and bled via cardiac puncture, and blood was collected for analysis. Tissues were collected, weighed, evaluated for gross abnormalities, and stored in 10% neutral-buffered formalin.
as §1

NFκB = NFκB luciferase assay (inhibition of TNFα-induced NFκB activity); type: cell-based, Human
Procedure: The smokeless tobacco used in these experiments was plain long-leaf Copenhagen tobacco purchased from a local vendor. Crude extract was extracted with methanol and water and clarified by centrifugation and filtration. The alkaloid extract was prepared from sodium hydroxide and methanol extraction, organic phase separation and purification. All treatment samples were prepared as a function of weight (μg/ml), and all samples were diluted in DMSO.
Human […] kidney cells (HEK293) transfected with an NFκB luciferase reporter were challenged with TNFα for three hours, then samples were applied to the challenged cells.
The effect of S-(−)-anatabine on TNFα-induced NFκB activity in vitro was determined as described in Example 1.

[4] = Single i.v. dose toxicity: body weights and food consumption; type: in vivo, Sprague-Dawley rats; details: for Mean food consumption/day: 14 days, 0.1 mg/kg
Procedure: as §2
All animals were observed daily.

[5] = Single i.v. dose toxicity: urinalysis; type: in vivo, Sprague-Dawley rats; details: for Urinalysis KETONES / Urinalysis BILIRUBIN / Urinalysis BLOOD / Urinalysis PROTEIN / Urinalysis pH / Urinalysis CLARITY / Urinalysis COLOR / Urinalysis GLUCOSE / Urinalysis UROBILINOGEN / Urinalysis VOLUME: individual animals M and F
From the text: as §1

[6] = Group B: Anatabine 0.1 mg/kg (Females), individual animals
[7] = Group B: Anatabine 0.1 mg/kg (Males), individual animals
[8] = Group C: Anatabine 0.75 mg/kg (Females), individual animals
[9] = Group C: Anatabine 0.75 mg/kg (Males), individual animals
[10] = female animals, Anatabine 0.1 mg/kg, n = 5
[11] = female animals, Anatabine 0.75 mg/kg, n = 5
[12] = male rats, single i.v. 0.1 mg/kg, day 15
[13] = male rats, single i.v. 0.75 mg/kg anatabine, day 15
[14] = Anatabine 0.1 mg/kg, F, individual rats
[15] = Anatabine 0.1 mg/kg, M, individual rats
[16] = Anatabine 0.75 mg/kg, F, individual rats
[17] = Anatabine 0.75 mg/kg, M, individual rats
[18] = single i.v. 0.1 mg/kg, male rats
[19] = Anatabine dose 0.1 mg/kg, 0.1 mg/kg, female rats
[20] = Anatabine dose 0.1 mg/kg, 0.1 mg/kg, male rats
[21] = Anatabine dose 0.1 mg/kg, female rats
[22] = Anatabine dose 0.1 mg/kg, male rats
[23] = Anatabine dose 0.75 mg/kg, 0.75 mg/kg, female rats
[24] = Anatabine dose 0.75 mg/kg, 0.75 mg/kg, male rats
[25] = Anatabine dose 0.75 mg/kg, female rats
[26] = Anatabine dose 0.75 mg/kg, male rats

In the case of `C1=CCC(c2cccnc2)NC1` (racemic) [Anatabine, 1,2,3,6-tetrahydro-[2,3′]bipyridinyl], the “physical signs post dose” value [1] is reported as “no obvious adverse signs were observed”, the “ACTIVE PARTIAL THROMBOPLASTIN TIME” value ([2]; female rats, individual animals B6-B10) is reported as 26 s and the “ACTIVE PARTIAL THROMBOPLASTIN TIME” value ([2]; male rats, individual animals B1-B5) is reported as 32 s. For the same compound, the “aPTT and PT vs vehicle control” value ([2]; rat, each anatabine treatment group) was “no significant differences in aPTT or PT”, the “Tissue Collection Weights: Heart” value [3, 6] was 0.95 g and the “Tissue Collection Weights: Ovaries/uterus” value [3, 6] was 0.96 g and 0.84 g and 0.70 g. For the same compound, the “Tissue Collection Weights: Small intestine” value [3, 6] was 0.87 g and 0.71 g and 0.55 g and 0.49 g and 0.63 g, the “Tissue Collection Weights: Spleen” value [3, 6] was 0.79 g and 0.62 g and 0.51 g and 0.67 g and 0.65 g and the “Tissue Collection Weights: Thymus” value [3, 6] was 0.68 g and 0.59 g and 0.49 g and 0.71 g and 0.73 g. The “Tissue Collection Weights: Heart” value [3, 7] was 1.60 g, the “Tissue Collection Weights: Kidneys” value [3, 7] was 3.70 g and the “Tissue Collection Weights: Prostate” value [3, 7] was 0.72 g and 0.49 g and 0.73 g and 0.53 g and 0.48 g. The “Tissue Collection Weights: Small intestine” value [3, 7] was 0.61 g and 0.96 g and 0.88 g and 0.50 g and 0.35 g, the “Tissue Collection Weights: Spleen” value [3, 7] was 0.91 g and 0.66 g and 0.82 g and 0.93 g and 0.76 g and the “Tissue Collection Weights: Thymus” value [3, 7] was 0.74 g (2×) and 0.76 g and 0.71 g and 0.81 g. For the same compound, the “Tissue Collection Weights: Brain” value [3, 8] was 1.93 g, the “Tissue Collection Weights: Heart” value [3, 8] was 0.99 g and the “Tissue Collection Weights: Kidneys” value [3, 8] was 2.20 g. For the same compound, the “Tissue Collection Weights: Lungs” value [3, 8] was 1.30 g, the “Tissue Collection Weights: Ovaries/uterus” value [3, 8] was 0.81 g and 1.50 g and 0.72 g and the “Tissue Collection Weights: Small intestine” value [3, 8] was 0.72 g and 0.37 g and 0.85 g and 0.47 g. The “Tissue Collection Weights: Spleen” value [3, 8] was 0.70 g and 0.65 g (2×) and 0.51 g and 0.49 g, the “Tissue Collection Weights: Thymus” value [3, 8] was 0.56 g and 0.53 g and 0.63 g and 0.52 g and 0.54 g and the “Tissue Collection Weights: Brain” value [3, 9] was 2.00 g. For the same compound, the “Tissue Collection Weights: Prostate” value [3, 9] was 0.49 g (2×) and 0.65 g and 0.46 g and 0.45 g, the “Tissue Collection Weights: Small intestine” value [3, 9] was 0.54 g and 0.56 g and 0.41 g and 0.47 g and the “Tissue Collection Weights: Spleen” value [3, 9] was 0.71 g and 0.63 g and 0.79 g and 0.93 g and 0.64 g. For the same compound, the “Tissue Collection Weights: Testes” value [3, 9] was 2.70 g, the “Tissue Collection Weights: Thymus” value [3, 9] was 0.52 g and 0.67 g and 0.69 g and 0.47 g and the “Organ Weight Brain, Mean” value [3, 10] was 1.86 g. For the same compound, the “Organ Weight Heart, Mean” value [3, 10] was 1.13 g, the “Organ Weight Liver, Mean” value [3, 10] was 10.84 g and the “Organ Weight Lungs, Mean” value [3, 10] was 1.41 g. For the same compound, the “Organ Weight Ovaries/uteris, Mean” value [3, 10] was 1.14 g, the “Organ Weight, Small intestine (mean)” value [3, 10] was 0.65 g and the “Organ Weight, Spleen (mean)” value [3, 10] was 0.65 g. The “Organ Weight, Thymus (mean)” value [3, 10] was 0.64 g, the “Organ Weight Brain, Mean” value [3, 11] was 1.90 g and the “Organ Weight Heart, Mean” value [3, 11] was 1.11 g. The “Organ Weight Kidneys, Mean” value [3, 11] was 2.30 g, the “Organ Weight Liver, Mean” value [3, 11] was 10.42 g and the “Organ Weight Lungs, Mean” value [3, 11] was 1.45 g. The “Organ Weight Ovaries/uteris, Mean” value [3, 11] was 1.58 g, the “Organ Weight, Small intestine (mean)” value [3, 11] was 0.75 g and the “Organ Weight, Spleen (mean)” value [3, 11] was 0.60 g. For the same compound, the “Organ Weight, Thymus (mean)” value [3, 11] was 0.56 g, the “Organ Weight, Prostate (mean)” value [3, 12] was 0.59 g and the “Organ Weight, Small intestine (mean)” value [3, 12] was 0.66 g. For the same compound, the “Organ Weight, Spleen (mean)” value [3, 12] was 0.82 g, the “Organ Weight, Thymus (mean)” value [3, 12] was 0.75 g and the “Organ Weight, Prostate (mean)” value [3, 13] was 0.51 g. For the same compound, the “Organ Weight, Small intestine (mean)” value [3, 13] was 0.68 g, the “Organ Weight, Spleen (mean)” value [3, 13] was 0.74 g and the “Organ Weight, Thymus (mean)” value [3, 13] was 0.67 g. The “Effect on TNFα-induced NFκB-mediated transcription of luciferase” value (NFκB; HEK293 with NFκB luciferase reporter challenged with TNFα) was “reduce this transcription to control levels”, the IC50 (NFκB; Homo sapiens, 20 ng/ml TNFα, HEK293 NFκB luciferase) was ~600 mg/L (≈ 3.74 mM) and the “day 7 B.W.” value [4, 14] was 222.0 g. The “day 12 B.W.” value [4, 14] was 240.0 g, the “day 3 B.W.” value [4, 15] was 270.0 g and the “day 4 B.W.” value [4, 15] was 270.0 g. The “day 8 B.W.” value [4, 15] was 310.0 g, the “day 9 B.W.” value [4, 15] was 310.0 g and the “day 12 B.W.” value [4, 15] was 320.0 g. For the same compound, the “day 13 B.W.” value [4, 15] was 360 g, the “day 2 B.W.” value [4, 16] was 210.0 g and the “day 4 B.W.” value [4, 16] was 230.0 g and 220.0 g. For the same compound, the “day 8 B.W.” value [4, 16] was 220.0 g, the “day 2 B.W.” value [4, 17] was 240.0 g and the “day 8 B.W.” value [4, 17] was 300.0 g. The “day 13 B.W.” value [4, 17] was 330 g, the “Mean weight increase by day 14” value ([4]; single i.v. 0.1 mg/kg, female rats) was 39.0 g and the “Mean weight increase by day 14” value [4, 18] was 132.5 g. For the same compound, the Mean food consumption/day [4, 18] was 31.0 g, the Mean food consumption/day ([4]; single i.v. 0.1 mg/kg, male rats, listed as anatabine) was “statistically higher” and the “Mean weight increase by day 14” value ([4]; single i.v. 0.75 mg/kg anatabine, female rats) was 43.1 g. For the same compound, the “Mean weight increase by day 14” value ([4]; single i.v. 0.75 mg/kg anatabine, male rats) was 111.6 g, the “Urinalysis KETONES” value ([5]; Anatabine dose 0.1 mg/kg, 0.1 mg/kg) was “NEGATIVE” and the “Urinalysis BILIRUBIN” value [5, 19] was “NEGATIVE”. The “Urinalysis BLOOD” value [5, 19] was “NEG- (3×) and TRACE”, the “Urinalysis PROTEIN” value [5, 19] was “NEG-” and the “Urinalysis pH” value [5, 19] was 7.5 (2×) and 7 and 8. For the same compound, the “Urinalysis BILIRUBIN” value [5, 20] was “NEGATIVE”, the “Urinalysis BLOOD” value [5, 20] was “TRACE (2×) and NEG-” and the “Urinalysis PROTEIN” value [5, 20] was “TRACE (3×) and NEG-”. The “Urinalysis pH” value [5, 20] was 8.5 and 7.5 (2×) and 7, the “Urinalysis CLARITY” value [5, 21] was “HAZY” and the “Urinalysis COLOR” value [5, 21] was “YELLOW”. The “Urinalysis GLUCOSE” value [5, 21] was “NEGATIVE”, the “Urinalysis UROBILINOGEN” value [5, 21] was “NORMAL” and the “Urinalysis VOLUME” value [5, 21] was <0.5 mL. For the same compound, the “Urinalysis CLARITY” value [5, 22] was “HAZY”, the “Urinalysis COLOR” value [5, 22] was “YELLOW” and the “Urinalysis GLUCOSE” value [5, 22] was “NEGATIVE”. For the same compound, the “Urinalysis UROBILINOGEN” value [5, 22] was “NORMAL”, the “Urinalysis VOLUME” value [5, 22] was <0.5 mL and the “Urinalysis CLARITY” value ([5]; Anatabine dose 0.75 mg/kg) was “HAZY”. For the same compound, the “Urinalysis COLOR” value ([5]; Anatabine dose 0.75 mg/kg) was “YELLOW”, the “Urinalysis VOLUME” value ([5]; Anatabine dose 0.75 mg/kg) was <0.5 mL and the “Urinalysis PROTEIN” value ([5]; Anatabine dose 0.75 mg/kg, 0.75 mg/kg) was “TRACE”. The “Urinalysis BILIRUBIN” value [5, 23] was “NEGATIVE”, the “Urinalysis BLOOD” value [5, 23] was “TRACE and NEG-” and the “Urinalysis KETONES” value [5, 23] was “NEGATIVE”. The “Urinalysis pH” value [5, 23] was 7.5 and 6 and 8 (2×), the “Urinalysis BILIRUBIN” value [5, 24] was “NEGATIVE” and the “Urinalysis BLOOD” value [5, 24] was “TRACE and NEG- (3×)”. The “Urinalysis KETONES” value [5, 24] was “NEGATIVE”, the “Urinalysis pH” value [5, 24] was 7 and the “Urinalysis GLUCOSE” value [5, 25] was “NEGATIVE”. The “Urinalysis UROBILINOGEN” value [5, 25] was “NORMAL”, the “Urinalysis GLUCOSE” value [5, 26] was “NEGATIVE” and the “Urinalysis UROBILINOGEN” value [5, 26] was “NORMAL”. For the same compound, the “urinalysis parameters vs controls” value ([5]; rat, day 15 after single i.v. dose) was “no notable differences in any of the urinalysis parameters”.
